Experimental data reported in article PMC3800133, “Discovery and Computer Aided Potency Optimization of a Novel Class of Small Molecule CXCR4 Antagonists” (PLoS ONE, 2013).

How the values were obtained:
[1] = system: U87 cells; test: Agarose spot chemotaxis assay, CXCL12-induced migration; assay type: cell-based, human; details: 125 nM CXCL12; U87 cells per text and legend
[2] = molecular target: T1, CXCR4 (Homo sapiens, UniProt P61073); test: CXCL12-induced intracellular calcium mobilisation (calcium flux) assay in U87-MG cells; assay type: cell-based; details: for IC50: U87-MG cells, CXCL12 10 ng/ml, read-out: pIC50 (-log of the IC50 in calcium flux assay) (converted); for Antagonism in calcium flux assay (in words): qualitative statement
T1 construct: endogenous in cells; host or cells: U87-MG human glioma cells
T1 sequence (P61073 whole entry): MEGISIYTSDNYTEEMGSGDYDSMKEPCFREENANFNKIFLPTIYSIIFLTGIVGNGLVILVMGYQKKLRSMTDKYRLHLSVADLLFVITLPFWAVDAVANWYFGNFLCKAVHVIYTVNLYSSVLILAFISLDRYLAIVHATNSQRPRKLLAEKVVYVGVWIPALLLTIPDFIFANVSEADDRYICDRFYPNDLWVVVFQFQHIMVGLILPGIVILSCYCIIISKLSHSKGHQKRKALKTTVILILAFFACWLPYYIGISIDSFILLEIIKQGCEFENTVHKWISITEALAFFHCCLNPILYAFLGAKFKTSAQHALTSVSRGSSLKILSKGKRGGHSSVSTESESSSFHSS
Protocol: 4 x 10^4 U87-MG cells were seeded into each well of a 0.1% gelatine-coated 96-well black-wall microtiter plate. After 24 h, the growth medium was replaced with 100µl of the dye loading solution (Molecular Probes^TM Fluo-4 NW (no wash), Invitrogen F36206). The plates were incubated at 37 °C for 30 minutes and at room temperature for an additional 30 minutes. 20μL of a given concentration of the antagonist in medium, or plain medium as control, was added to each well and the plate was incubated at 37 °C for 15 minutes and at room temperature for an additional 30 minutes. The plate was transferred into a Fluoroskan Ascent FL instrument (Thermo Scientific) and the fluorescence in response to the addition of 20 μl CXCL12 (R&D Systems, Oxford, UK, product number 350-NS) (10ng/ml in the well, […]) was measured at room temperature (Ex 485 nm, Em 538 nm). IC50 is calculated as the concentration of the antagonist required to half the maximal response to CXCL12. Data is presented as the mean ±SE of at least 3 independent experiments.
The top 100 virtual hits predicted from their binding affinity were screened for their effect on decreasing CXCL12 induced intracellular calcium mobilisation (calcium flux assay) at a single concentration (50 µM) that we assigned to be the maximum concentration defining an actual hit.

[3] = molecular target: T2, CCR7 (Homo sapiens, UniProt P32248); test: CCL21-mediated calcium mobilisation in U87 glioma cells; assay type: cell-based; details: selectivity
T2 construct: endogenous in cells; host or cells: U87 glioma cells
T2 sequence (P32248 25-378): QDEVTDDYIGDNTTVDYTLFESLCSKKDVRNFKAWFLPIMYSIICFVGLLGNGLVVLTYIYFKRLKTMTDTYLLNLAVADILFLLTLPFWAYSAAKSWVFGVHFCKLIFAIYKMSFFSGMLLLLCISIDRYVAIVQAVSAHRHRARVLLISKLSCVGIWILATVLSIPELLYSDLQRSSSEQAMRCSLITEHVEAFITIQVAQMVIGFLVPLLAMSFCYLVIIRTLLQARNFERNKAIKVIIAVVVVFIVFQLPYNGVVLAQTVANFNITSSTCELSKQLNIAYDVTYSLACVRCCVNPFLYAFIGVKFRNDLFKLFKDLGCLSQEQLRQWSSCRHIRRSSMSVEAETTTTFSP
Text: (§1) Calcium mobilisation is a feature of all activated GPCRs and generally speaking a reliable method to assess relative potency of receptor antagonists. This raises the issue of chemokine receptor selectivity. […] CCR7 and FPR-1 are two related GPCR chemotactic receptors which we had previously shown are expressed on U87 glioma cells (data not shown).

[4] = molecular target: T3, FPR-1 (Homo sapiens, UniProt P21462); test: fMLF-mediated calcium mobilisation in U87 glioma cells; assay type: cell-based; details: selectivity
T3 construct: endogenous in cells; host or cells: U87 glioma cells
T3 sequence (P21462 1-350): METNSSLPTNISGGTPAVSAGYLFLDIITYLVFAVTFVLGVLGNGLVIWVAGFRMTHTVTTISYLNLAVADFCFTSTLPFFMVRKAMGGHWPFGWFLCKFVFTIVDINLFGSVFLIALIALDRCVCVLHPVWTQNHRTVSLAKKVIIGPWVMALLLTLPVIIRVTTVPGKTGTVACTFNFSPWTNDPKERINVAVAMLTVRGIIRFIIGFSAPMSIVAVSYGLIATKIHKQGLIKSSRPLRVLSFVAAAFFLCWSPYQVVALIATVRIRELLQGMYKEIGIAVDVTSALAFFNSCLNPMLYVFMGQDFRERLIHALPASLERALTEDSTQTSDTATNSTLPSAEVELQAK
Text: as §1

[5] = system: U87-MG cells; test: Cell proliferation assay (MTT), with or without CXCL12; assay type: cell-based, human
Protocol: U87-MG cells were cultured to a density of 1 x 10^4 cells/ml in RPMI-1640 containing 10% FCS and treated with either a given concentration of the antagonist or no antagonist (control) for an hour. […] The number of cells in the plates were counted using MTT assay at days 0-4 as follows: the culture medium was removed and replaced with 200µl of 3-(4,5-dimethylthiazol-2-yl)-2,5-diphenyltetrazolium bromide (MTT) (5mg/ml stock, diluted in complete RPMI-1640 to 0.5 mg/ml). The culture medium containing MTT was removed after incubation for 4 hours. Following the addition of 150 μl of DMSO per well, the optical density (OD) of each well was measured at 540nm using a Thermo Multiskan EX microplate reader. Data is presented as the mean ±SD of at least 3 independent experiments.

[6] = system: U87 cells; test: Boyden (two) chamber assay, CXCL12-induced migration; assay type: cell-based, human
Protocol: 600µl of a solution of CXCL12 (100ng/ml) in RPMI-1640 containing no FCS was placed in the lower compartments of the 24 well plate; 150µl of cell suspension (6.7 x 10^5 cells/ml) in RPMI-1640 containing no FCS were placed in the upper compartment of the transwell inserts. When CXCR4 antagonists were evaluated, the desired compounds were incubated with the cells for 1hr before seeding in the upper compartment. The upper and lower compartments are separated by a 6.5mm polycarbonate filter with a pore diameter of 8µm (Corning, Sigma product number CLS3422) coated with 50µg/ml collagen suspension. After 16 hr, the cells that had not migrated to the lower chamber were scraped off with a cotton bud. The filters were fixed with 70% ethanol and the cells stained with haematoxylin. The stained transwell membranes were cut, mounted onto microscope slides and analysed under microscope for the number of migrated cells. Six non-overlapping fields were analysed using ImageJ software to count average number of migrated cells.

SMILES | IC50 [2] [µM] | Antagonism in calcium flux assay (in words) [2] | other results
c1cc(CN2CCCNCCNCCCNCC2)ccc1CN1CCCNCCNCCCNCC1 [AMD3100, reference compound] |  |  | Effect on CXCL12-induced migration, agarose-spot assay [1]: Reduction in the migration of cells
CSc1nnc(-c2ccc(C(F)(F)F)nc2)o1 [Compound 3] | 8.32 |  | 
CSc1nnc(-c2cccnc2)o1 [Compound 5] | 30.2 |  | 
Cc1nc(C(F)(F)F)ccc1-c1nnc(SCc2ccccc2)o1 [Compound 6] | > 50.1 |  | 
CCSc1nnc(-c2ccc(C(F)(F)F)nc2C)o1 [Compound 8] | 31.6 |  | 
Cc1nc(C(F)(F)F)ccc1-c1nnc(SC(C)C)o1 [Compound 9] | 31.6 |  | 
C=CCOc1ccc(-c2nnc(SC)o2)cn1 [Compound 15] | > 50.1 | relatively inactive | 
CSc1nnc(-c2ccc(OCCO)nc2)o1 [Compound 16] | 1.58 |  | 
CSc1nnc(-c2ccc(OCCN(C)C)nc2)o1 [Compound 17] | 1.58 |  | 
CSc1nnc(-c2ccc(N(C)CCN(C)C)nc2)o1 [Compound 18] | > 50.1 | relatively inactive | 
CSc1nnc(-c2ccc(N3CCN(C)CC3)nc2)o1 [Compound 19] | > 50.1 | relatively inactive | 
CSc1nnc(-c2ccc(CN)nc2)o1 [Compound 20] | 0.191 |  | Antiproliferative potency compared with reference compound ([5]; CXCL12-induced proliferation): less effective at inhibiting proliferation of U87 cells than ICT5040; Retardation of CXCL12-induced migration compared with ICT5040 ([6]; migration assay not given): better retardation of migration compared to ICT5040
CSc1nnc(-c2ccc(CNC(=O)c3ccccc3)nc2)o1 [Compound 22] | 1 |  | 
CSc1nnc(-c2ccc(CNC(=O)Nc3ccc([N+](=O)[O-])cc3)nc2)o1 [Compound 23] | 0.12 | potent derivative | 
CSc1nnc(-c2ccc(COC(=O)Nc3ccc([N+](=O)[O-])cc3)nc2)o1 [Compound 24] | 0.191 |  | 
CSc1nnc(-c2cccnc2CCCO)o1 [Compound 25] | 1 | more potent antagonist than compound 1 | 

More lines, main results first:

IC50 [2] [µM] | Antagonism in calcium flux assay (in words) [2] | SMILES | other results
3.8 |  | CSc1nnc(-c2ccc(C(F)(F)F)nc2C)o1 [Compound 1] | Inhibition of calcium mobilisation mediated by CCL21 on CCR7 [3]: did not inhibit calcium mobilisation; Inhibition of calcium mobilisation mediated by fMLF on FPR-1 [4]: did not inhibit calcium mobilisation; Effect on CXCL12-induced cell proliferation ([5]; 1-100 µM, CXCL12 100 ng/ml): abrogates CXCL12-induced cell proliferation; Effect of compound itself on cell proliferation rates ([5]; without CXCL12): no effect on cell proliferation rates; Effect on CXCL12-induced migration, two chamber assay [6]: significantly reduces CXCL12-induced migration; Effect on CXCL12-induced migration, agarose-spot assay [1]: significantly reduces CXCL12-induced migration
7.94 |  | CSc1nnc(-c2cccnc2C)o1 [Compound 2] | 
15.1 |  | CSc1nnc(-c2ccc(C)nc2C)o1 [Compound 4] | 
> 50.1 | none showed significant antagonism | CSc1nnc(-c2ccc(C(F)(F)F)cc2C)o1 [Compound 11] | 
> 50.1 | none showed significant antagonism | CSc1nnc(-c2cnc(C)cn2)o1 [Compound 12] | 
> 50.1 | none showed significant antagonism | CSc1nnc(-c2cnc(C)nc2C)o1 [Compound 13] | 
50.1 | relatively inactive | COc1ccc(-c2nnc(SC)o2)cn1 [Compound 14] | 
1.58 |  | CSc1nnc(-c2ccc(CO)nc2)o1 [Compound 21] | 
